From patent publication US8877933B2, “Thermodynamically stable form of a tosylate salt” (Bayer Intellectual Property GmbH, priority 2004, dated 2014)

Experiment: Thermodynamic and storage stability of the crystal forms of the compound of the formula (I)
Assay type: physicochemical
Details: for thermodynamic stability of the crystal form: room temperature

SMILES | storage stability (after processing via suspensions) | thermodynamic stability of the crystal form
CNC(=O)c1cc(Oc2ccc(NC(=O)Nc3ccc(Cl)c(C(F)(F)F)c3)cc2)ccn1.Cc1ccc(S(=O)(=O)O)cc1 [polymorph I, 4-{4-[({[4-chloro-3-(trifluoromethyl)phenyl]amino}carbonyl)-amino]phenoxy}-N-methylpyridine-2-carboxamide tosylate in the polymorph I] | storage-stable even after processing via suspensions | thermodynamically stable at room temperature
CNC(=O)c1cc(Oc2ccc(NC(=O)Nc3ccc(Cl)c(C(F)(F)F)c3)cc2)ccn1.Cc1ccc(S(=O)(=O)O)cc1 [polymorph II, 4-{4-[({[4-Chloro-3-(trifluoromethyl)phenyl]amino}carbonyl)amino]phenoxy}-N-methylpyridine-2-carboxamide tosylate in the polymorph II] | – | metastable
